Measured values reported in US20120252054A1, “SYSTEM FOR TRANSFORMATION OF THE CHLOROPLAST GENOME OF SCENEDESMUS SP. AND DUNALIELLA SP” (priority 2009, published 2012).

Experiments:
[1] = system: Wildtype S. dimorphus; experiment: Plating on TAP agar containing 5-fluorocytosine, wild type; type: cell-based, Scenedesmus dimorphus; settings: 1 mg/mL 5FC
Method: To determine if functional codA is produced by transformed algae cells, cells were grown in TAP media to log phase, pelleted and resuspended to 10^8 cells/mL and plated onto TAP agar medium containing 1 mg/mL 5-fluorocytosine (5FC).
To determine if functional codA is produced by transformed algae cells, cells were plated onto TAP agar medium containing 1 mg/mL 5-fluorocytosine (5FC).

[2] = system: S. dimorphus transformants containing the codA transgene; experiment: Plating on TAP agar containing 5-fluorocytosine, codA transformants; type: cell-based, Scenedesmus dimorphus; settings: 1 mg/mL 5FC
Text: In this example, a nucleic acid encoding cytosine deaminase gene (codA) from E. coli was introduced into S. dimorphus. Transforming DNA is shown graphically in FIG. 23. In this instance the DNA segment labeled “codA cr” is the codA encoding gene (SEQ ID NO: 31, codA), the segment labeled “psbD” is the promoter and 5′ UTR for the psbD gene from S. dimorphus, the segment labeled “D1 3′” is the 3′ UTR for the psbA gene from S. dimorphus, and the segment labeled “CAT” is the chloramphenicol acetyl transferase gene (CAT) from E. coli, which is regulated by the promoter and 5′ UTR sequence for the tufA gene from S. dimorphus and the 3′ UTR sequence for the rbcL gene from S. dimorphus. The transgene expression cassette and selection marker are targeted to the S. dimorphus chloroplast genome via the segments labeled “Homology A” and “Homology B” which are approximately 1000 bp fragments homologous to sequences of DNA adjacent to nucleotide 071,366 (Site 1; nucleotide locations according to the sequence available from NCBI for S. obliquus, NC—008101) on the 5′ and 3′ sides, respectively. All DNA segments were cloned into pUC19. All DNA manipulations carried out in the construction of this transforming DNA were essentially as described by Sambrook et al., Molecular Cloning: A Laboratory Manual (Cold Spring Harbor Laboratory Press 1989) and Cohen et al., Meth. Enzymol. 297, 192-208, 1998. […]

[3] = system: S. obliquus transformants containing the codA transgene; experiment: Plating on TAP agar containing 5-fluorocytosine, codA transformants of S. obliquus; type: cell-based, Scenedesmus obliquus; settings: 1 mg/mL 5FC
Text: In this example, a nucleic acid encoding cytosine deaminase gene (codA) from E. coli was introduced into S. obliquus. Transforming DNA is shown graphically in FIG. 23. In this instance the DNA segment labeled “codA cr” is the codA encoding gene (SEQ ID NO: 27, codA), the segment labeled “psbD” is the promoter and 5′ UTR for the psbD gene from S. dimorphus, the segment labeled “D1 3′” is the 3′ UTR for the psbA gene from […], and the segment labeled “CAT” is the chloramphenicol acetyl transferase gene (CAT) from E. coli, which is regulated by the promoter and 5′ UTR sequence for the tufA gene from S. dimorphus and the 3′ UTR sequence for the rbcL gene from S. dimorphus. The transgene expression cassette and selection marker are targeted to the S. obliquus chloroplast genome via the segments labeled “Homology A” and “Homology B” which are approximately 1000 bp fragments homologous to sequences of DNA adjacent to nucleotide 071,366 (Site 1; nucleotide locations according to the sequence available from NCBI for S. obliquus, NC—008101) on the 5′ and 3′ sides, respectively. All DNA segments were cloned into pUC19. All DNA manipulations carried out in the construction of this transforming DNA were essentially as described by Sambrook et al., Molecular Cloning: A Laboratory Manual (Cold Spring Harbor Laboratory Press 1989) and Cohen et al., Meth. Enzymol. 297, 192-208, 1998. […]

[4] = system: wild type S. dimorphus; experiment: Growth in HSM with various concentrations of DCMU or atrazine, wild type; type: cell-based, Scenedesmus dimorphus; settings: constant light 50-100 uE with CO2 enrichment, 4 days
[5] = system: S. dimorphus DCMU transformants (CAT cassette); experiment: Patching of DCMU-selected CAT-cassette transformants onto TAP agar with chloramphenicol; type: cell-based, Scenedesmus dimorphus; settings: TAP agar medium containing 25 μg/mL CAM
Text: In order to determine if DCMU selection could result in incorporation of an expression cassette downstream of the psbA gene, A vector was constructed containing an expression cassette consisting of an endogenous promoter, a chloramphenicol acetyltransferase (CAT) gene, and an endogenous terminator cloned ˜500 bp downstream of the S264A/XbaI mutated psbA gene fragment from S. dimorphus and including the rpl20 gene. Transforming DNA is shown graphically in FIG. 4. In this instance the DNA segment labeled “CAT” is the chloramphenicol acetyl transferase gene from E. coli, the segment labeled “tufA” is the promoter and 5′ UTR sequence for the tufA gene from S. dimorphus, and the segment labeled “rbcL” is the 3′ UTR for the rbcL gene from S. dimorphus. The selection marker cassette is targeted to the S. dimorphus chloroplast genome via the segments labeled “Homology A2” and “Homology B2” which are 1000 bp fragments homologous to sequences of DNA adjacent to nucleotide 065,353 and include an S264A/XbaI mutated partial psbA coding sequence, its 3′UTR, and the rpl20 coding sequence. This vector targets integration of the selection marker cassette approximately 400 bp 3′ of the stop codon of the psbA gene.
Transforming DNA was introduced into S. dimorphus via particle bombardment (as described in EXAMPLE 1) with DNA carried on 550 nm gold particles, @500 psi and a shooting distance of 4 cm. […]

## Nc1nc(=O)[nH]cc1F [5FC, 5-fluorocytosine]
[1]
  survival on TAP agar containing 5FC: survived
[2]
  survival on TAP agar containing 5FC: do not
[3]
  survival on TAP agar containing 5FC: did not

## CCNc1nc(Cl)nc(NC(C)C)n1 [Atrazine]
[4]
  concentration in which cells fail to grow: 0.5 µM

## O=C(N[C@H](CO)[C@H](O)c1ccc([N+](=O)[O-])cc1)C(Cl)Cl [CAM, chloramphenicol]
[5]
  resistance of transformants to chloramphenicol: resistant

## CN(C)C(=O)Nc1ccc(Cl)c(Cl)c1 [DCMU, 3-(3,4-Dichlorophenyl)-1,1-dimethylurea]
[4]
  concentration in which cells fail to grow: 0.5 µM
